Measurements published in patent US20020022022A1, “Inhibition of cell proliferation and matrix synthesis by antioxidants and NAD(P)H oxidase inhibitors” (priority 2000, published 2002).
Entries after “also recorded” stand apart in the source; their conditions may differ. Like-named read-outs stand apart in the source and are kept apart here.

B1: CAT: catalase; removal of H2O2 (protein, UniProt P00432 2-527, looked up)
Catalase: ADNRDPASDQMKHWKEQRAAQKPDVLTTGGGNPVGDKLNSLTVGPRGPLLVQDVVFTDEMAHFDRERIPERVVHAKGAGAFGYFEVTHDITRYSKAKVFEHIGKRTPIAVRFSTVAGESGSADTVRDPRGFAVKFYTEDGNWDLVGNNTPIFFIRDALLFPSFIHSQKRNPQTHLKDPDMVWDFWSLRPESLHQVSFLFSDRGIPDGHRHMNGYGSHTFKLVNANGEAVYCKFHYKTDQGIKNLSVEDAARLAHEDPDYGLRDLFNAIATGNYPSWTLYIQVMTFSEAEIFPFNPFDLTKVWPHGDYPLIPVGKLVLNRNPVNYFAEVEQLAFDPSNMPPGIEPSPDKMLQGRLFAYPDTHRHRLGPNYLQIPVNCPYRARVANYQRDGPMCMMDNQGGAPNYYPNSFSAPEHQPSALEHRTHFSGDVQRFNSANDDNVTQVRTFYLKVLNEEQRKRLCENIAGHLKDAQLFIQKKAVKNFSDVHPEYGSRIQALLDKYNEEKPKNAVHTYVQHGSHLSAREKANL

How the values were obtained:
vascular SMC = test: Vascular SMC proliferation, serum-stimulated (cell counting); assay type: cell-based; settings: 10% FBS, 3 days after treatment; concentration-dependent
Method: FIG. 7B. ROS and vascular SMC proliferation. SMC (10,000 cells/well) are arrested with 0.5% FBS for 48 hours and then stimulated with 10% FBS in the presence or absence of various inhibitors. Cell growth is examined at 3 days after treatment by cell counting. […] The experiments are repeated 3 times yielding similar results.
(§1) Fibroblasts are isolated from the adventitia of porcine coronary arteries as described. (26) The cells (passage 2-6) are plated in triplicates at 10,000 cells/well in 24-well plates in DMEM supplemented with 10% FBS. At 24 hours later, cells are arrested in DMEM containing 0.5% FBS for 48 hours. Afterwards, they are stimulated with 10% FBS for 3 days with or without addition of indicated inhibitors. Cells are trypsinized at 72 hours after stimulation and counted in a Coulter counter. Values are derived from 3 wells/treatment and the experiments are repeated at least three times on separate occasions.

[1] = test system: superoxide anion (—O2^−) in SVG; test: Superoxide anion in saphenous vein grafts (SOD-inhibitable NBT reduction); assay type: cell-based, pigs; settings: SVG 2 weeks after surgery, DPI 100 μM; for effect on superoxide anion in SVG (SOD-inhibitable NBT reduction): L-NAME 1 mM
Method: A porcine model of a graft interposition in the common carotid artery is used as described. (49) Domestic crossbred pigs (n=22) weighing 35-50 kg are sedated with Telazol (3-5 mg/kg) and atropine (0.01 mg/kg) i.m. Anesthesia is maintained with Propofol, i.v. (15 mg/kg/hr). The animals are ventilated with 100% oxygen. Saphenous veins are harvested without distension and incubated for 30 minutes in saline containing nitroglycerine (0.5 mg/ml). Both carotid arteries are dissected free and heparin (150 U/kg) is administered i.v. A ˜2 cm section of the carotid artery is excised and reversed vein interposition grafting is performed. The excised carotid artery then is grafted into the contralateral carotid artery. Postoperative analgesia is provided with Buprenex (0.015 mg/kg) i.m. The animals are given aspirin 650 mg/day p.o. At the times indicated, animals are euthanized with Euthasol (80 mg/kg) i.v. and vascular tissues harvested.
Superoxide anion (—O2^−) production is measured by SOD-inhibitable conversion of NTB to formazan. (20,21) Normal saphenous veins, arteries, SVG, and AG are harvested at 2 weeks after surgery. After the removal of adventitia and endothelium, tissues are cut into ˜5 mm strips, placed in a 24-well plate, and balanced in pheno-free DMEM at 37° C. in CO2 for 30 minutes. Freshly made NBT (0.1 mg/ml in pheno-free DMEM) is added for 3 hours with or without addition of SOD (1000 U/ml). The reaction is terminated by 0.5N HCl and rinsing twice with cold PBS. To extract formazan, tissues are pulverized in liquid nitrogen, dissolved in 100% pyridine at 80° C. for 30 minutes, and centrifuged. Supernatants are read at 540 nm and NBT reduction is calculated as follows: NBT reduction=A×V/(T×E×L) (A: absorbance; V: volume of solubilizing solution; T: time of incubation with NBT (minutes); E: extinction coefficient=0.72 mmol.mm; L: length of light travel through the solution (10 mm).) The SOD-inhibitable NBT reduction is calculated as a measure of —O2^− (pmol/mg wet weight/min). In separate experiments, the inhibitors of oxidative enzymes are used, inlcuding diphenyleneiodonium (DPI, 100 μM) rotenone (ROT, 50 μμM), oxypurinol (OXY, 300 μμM) and N^ω-nitro-L-arginine methyl ester (L-NAME, 1 mM), to determine the origin of —O2^− in vascular grafts.

[2] = test system: —O2^− generation in coronary adventitial fibroblasts; test: Serum-induced —O2^− generation in coronary adventitial fibroblasts (NBT to formazan); assay type: cell-based, porcine
Method: —O2^− production in isolated adventitial fibroblasts: Adventitial fibroblasts (passage 2-6) are plated in 6-well plates at 100,000 cells/well in 10% FBS. Two (2) days later, when cells are ˜80% confluent, they are arrested in 0.5% FBS for the next 48 hours. Afterwards, they are stimulated with 10% FBS for 1-24 hours, followed by incubation with NBT (0.5 mg/ml in phenol-free DMEM) for one hour. After a brief washing, cells are trypsinized, and cell pellets are dissolved in 100% pyridine. The light absorbance is measured at 540 nm, and the NBT reduction to formazan is calculated as described above and corrected by cell number. Values are derived from 6-9 wells from three separate experiments.

[3] = test system: superoxide generation in injured coronary arteries; test: Superoxide generation in injured coronary arteries (SOD-inhibitable NBT reduction); assay type: cell-based, pigs; settings: for Superoxide generation (SOD-inhibitable NBT reduction): rings pretreated 30 minutes, DPI 100 μM or L-NAME 1 mM; for effect on superoxide generation after coronary injury: injured coronary arteries, DPI 100 μM, L-NAME 1 mM
Excerpt: Domestic crossbred female pigs (12-15 kg) are anesthetized and instrumented, as previously described. (22,23) After the exposure of the right common carotid artery, heparin (5,000 U) is intravenously administered. […] The third artery is used as a control. The animals are euthanatized with intravenous […] Laboratory) at the times indicated in the text. […] Coronary arteries are dissected free from adipose tissue and myocardium and then cut into 5 mm rings and placed in 24-well plates. […] The reaction is terminated by addition of equal volume of 0.5N HCl, and tissues are rinsed twice with cold PBS. To extract formazan, tissues are pulverized in liquid nitrogen and dissolved in 100% pyridine at 80° C. for 30 minutes. After centrifugation, light absorbance is read in supernatants at 540 nm. The NBT reduction to formazan is calculated using the following formula: NBT reduction=[…]: absorbance; V: volume of solubilizing solution; T: time of incubation with NBT (minutes); […] L: length of light travel through the solution, 10 mm).

[4] = test system: superoxide anion (—O2^−) generation in coronary adventitia; test: —O2^− production in uninjured coronary adventitia (SOD-inhibitable NBT reduction); assay type: cell-based, pigs; settings: uninjured coronary rings pre-incubated with inhibitor; DPI 100 μM, ROT 50 μM, OXY 300 μM
Method: The production of —O2^− is measured by superoxide dismutase- (SOD) or tiron-inhibitable conversion of nitroblue tetrazolium (NBT) to formazan. (20,21)
—O2^− production in coronary arteries: Coronary arteries are dissected free from adipose tissue and myocardium and then cut into ˜5 mm rings and placed in 24-well plates. Tissues are balanced in phenol-free DMEM at 37° C. in a CO2 incubator for 30 minutes with or without addition of SOD (SOD, 1000 unit/ml) or tiron (10 mM), both scavengers of —O2^− Freshly made NBT (100 mg/L in phenol-free DMEM) is added to the tissues with a gentle rocking for 3 hours. The reaction is terminated by addition of equal volume of 0.5N HCl, and tissues are rinsed twice with cold PBS. To extract formazan, tissues are pulverized in liquid nitrogen and dissolved in 100% pyridine at 80° C. for 30 minutes. After centrifugation, light absorbance is read in supernatants at 540 nm. The NBT reduction to formazan is calculated using the following formula: NBT reduction=A×V/(T×E×L) (A: absorbance; V: volume of solubilizing solution; T: time of incubation with NBT (minutes); E: extinction coefficient=0.72 mmol.mm; L: length of light travel through the solution, 10 mm). Either SOD- or tiron-inhibitable NBT reduction is calculated as measures of —O2^− production (pmol/min/mg wet weight). To determine the pathways mediating —O2^− production, several inhibitors are used in the experiments, including diphenyleneiodonium (DPI, 100 μM), rotenone (ROT, 50 μM), oxypurinol (OXY, 300 μM), N^ω-nitro-L-arginine methyl ester (L-NAME, 1 mM), and diethyldithio-carbamic acid (DETCA, 10 mM). The n value represents the number of vascular rings obtained from at least 3 animals per experimental condition.

adventitial fibroblasts = test: Cell proliferation assay, serum-stimulated adventitial fibroblasts (cell counting); assay type: cell-based, porcine; settings: for effect on fibroblast growth (cell counting): 10% FBS, 3 days after treatment, concentration-dependent; for effect on serum-induced growth of vascular cells in vitro: serum-stimulated isolated vascular cells (fibroblasts and SMC, FIGS. 7A and 7B)
Method: as §1

[5] = cited from earlier work
[6] = pretreated 30 minutes, 10% FBS for 3 hours, DPI 10 μM, SOD 500 U/ml

Row | Molecule | effect on SMC growth (cell counting) (vascular SMC) | effect on superoxide anion in SVG (SOD-inhibitable NBT reduction) [1] | effect on fibroblast growth (cell counting) (adventitial fibroblasts) | effect on serum-induced growth of vascular cells in vitro (adventitial fibroblasts) | effect on serum-induced —O2^− production [2, 6] | further results
1 | c1ccc2c(c1)[I+]c1ccccc1-2 [DPI, diphenyleneiodonium] | significantly inhibits | significantly reduced | significantly inhibits | significantly inhibits; also recorded: abrogates |  | reduction of —O2^− in SVG [1]: > 95%; effect on serum-induced —O2^− production [2]: significant inhibition; also recorded: significant reduction; Superoxide generation (SOD-inhibitable NBT reduction) ([3]; 2 days after injury): 0.5 ± 0.9 pmol/mg/min; Superoxide generation (SOD-inhibitable NBT reduction) ([3]; 10 days after injury): 0.2 ± 0.3 pmol/mg/min; effect on superoxide generation after coronary injury [3]: almost entirely abolishes; effect on —O2^− generation in coronary adventitia (SOD-inhibitable NBT reduction) [4]: inhibits; also recorded: abolishes
2 | COC(=O)[C@@H](N)CCCNC(=N)N[N+](=O)[O-] [L-NAME, N^ω-nitro-L-arginine methyl ester] |  | no effects; also recorded: do not decrease |  | no significant effects | no effects | Superoxide generation (SOD-inhibitable NBT reduction) ([3]; 2 days after injury): 12.9 ± 9.4 pmol/mg/min; Superoxide generation (SOD-inhibitable NBT reduction) ([3]; 10 days after injury): 11.5 ± 6.1 pmol/mg/min; effect on superoxide generation after coronary injury [3]: shows no effect
3 | CC(=O)N[C@@H](CS)C(=O)O [NAC, N-acetylcysteine] | significantly inhibits |  |  |  |  | 
4 | O=c1[nH]c(=O)c2c[nH]nc2[nH]1 [OXY, oxypurinol] |  | do not decrease |  | no significant effects | no effects | effect on superoxide anion in SVG (SOD-inhibitable NBT reduction) ([1]; listed as oxypurinol): no effects; effect on —O2^− generation in coronary adventitia (SOD-inhibitable NBT reduction) [4]: no inhibitory effects; also recorded: no effect
5 | C=C(C)[C@H]1Cc2c(ccc3c2O[C@@H]2COc4cc(OC)c(OC)cc4[C@@H]2C3=O)O1 [ROT, rotenone] |  | do not decrease |  |  | no effects | effect on superoxide anion in SVG (SOD-inhibitable NBT reduction) ([1]; listed as rotenone): no effects; effect on —O2^− generation in coronary adventitia (SOD-inhibitable NBT reduction) [4]: no inhibitory effects; also recorded: no effect
6 | COc1cc(C(C)=O)ccc1O [apocynin, 4-hydroxy-3-methoxyacetopoenone] | significantly inhibits |  |  |  |  | 
7 | CCOC(=O)[C@H](CCc1ccccc1)N[C@@H](C)C(=O)N1[C@H](C(=O)O)C[C@@H]2CCC[C@@H]21 [ramipril] |  |  |  |  |  | cardiovascular mortality ([5]; chronic administration, HOPE trial): reduction
8 | O=S(=O)(O)c1cc(O)c(O)c(S(=O)(=O)O)c1 [tiron] | significantly inhibits |  | significantly inhibits | inhibits; also recorded: abrogates |  | 
9 | SOD: superoxide dismutase, exogenous enzyme; dismutation of —O2^− to H2O2 | no significant inhibition |  | no significant inhibition | does not prevent; also recorded: ineffective | significant inhibition; also recorded: significant reduction | 
10 | vitamin E |  |  |  |  |  | clinical results with antioxidant ([5]; clinical): largely negative
11 | B1 | significantly inhibits |  | significantly inhibits | inhibits; also recorded: abrogates |  | 
